# Source: patent US20150065440A1 (Progen Pharmaceuticals Limited, priority 2007, published 2015)
# What was measured:
# [1] = target: T1, recombinant human heparanase (Homo sapiens, UniProt Q9Y251); assay: Heparanase inhibition assay (fondaparinux cleavage, WST-1); details: read-out: Ki Heparanase; IC50 converted into Ki; fondaparinux 100 μM, pH 5.0
# T1 sequence (Q9Y251 158-543 limits assumed): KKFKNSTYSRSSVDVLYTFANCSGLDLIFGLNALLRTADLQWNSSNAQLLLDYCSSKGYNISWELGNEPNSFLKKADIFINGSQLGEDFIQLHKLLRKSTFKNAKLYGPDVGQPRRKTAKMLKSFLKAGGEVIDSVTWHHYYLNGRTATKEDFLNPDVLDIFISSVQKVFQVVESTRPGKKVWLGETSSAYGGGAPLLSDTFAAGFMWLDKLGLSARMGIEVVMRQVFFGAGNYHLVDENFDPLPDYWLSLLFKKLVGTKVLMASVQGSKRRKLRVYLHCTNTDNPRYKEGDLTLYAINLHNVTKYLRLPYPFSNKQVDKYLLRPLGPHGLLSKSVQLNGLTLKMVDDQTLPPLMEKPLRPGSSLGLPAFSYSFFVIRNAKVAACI
# T1 sequence (Q9Y251 36-109 limits assumed): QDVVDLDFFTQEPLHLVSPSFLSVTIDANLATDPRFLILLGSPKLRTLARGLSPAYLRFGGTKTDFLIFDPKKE
# Protocol: In the presence of an inhibitor the catalytic activity of heparanase is reduced, and the amount of disaccharide produced and the optical density of the solution are both decreased. The percent inhibition and IC50 of the inhibitor are determined from measurement of the optical density (OD) over a range of inhibitor concentrations.
# Assays were carried out in 40 mM sodium acetate buffer, pH 5.0, as follows. […] A blue colour was developed by incubation of the plates at 60° C. for 60 min. […] The IC50 value for each compound was evaluated and converted into a Ki (inhibition constant) using the expression
# [2] = test system: RSV; assay: Anti-RSV screening assay (viral plaques); type: cell-based; details: 100 μg/mL, viral plaques relative to mock treated controls
# Protocol: (§1) African green monkey kidney (GMK AH1) cells^46 were cultured in Eagle's minimum essential medium (EMEM) supplemented with 2% calf serum, 0.05% Primaton RL substance (Kraft Inc., Norwich, USA) and antibiotics. Human epidermoid carcinoma (HEp-2) cells were cultured in Dulbecco's modified EMEM (DMEM) supplemented with 10% fetal calf serum and antibiotics. […] The RSV strain A-2^50 was used. The RSV stock was prepared as described by Hallak et al.^51 and stored at −70° C. in the presence of 40% sucrose^52.
# (§2) The viral infectivity (the plaque number-reduction) assay and the plaque size-reduction assay were carried out as described previously^17. […] Subsequently, the cells were washed with 2 mL of EMEM and overlaid with 1% methylcellulose solution in EMEM. The plaques were visualized by staining with crystal violet solution after 2 (HSV-2) or 3 (HSV-1) days of incubation at 37° C. […] When the compounds were screened for anti-HSV or anti-RSV activity, mixtures of 200 PFU of the virus and the test compound (100 μg/mL) in serum-free EMEM were incubated for 10 min at room temperature before addition to cells and during the entire period of viral infection of cells and the development of viral plaques. In the plaque size-reduction assay, the compounds were added to cells (in methylcellulose overlay medium) after 2 h period of virus infection of cells in the absence of the inhibitor. After 2-3 days of incubation at 37° C., the viral plaques were visualized by staining the cells with 1% solution of crystal violet. For each compound tested, the images of twenty neighboring plaques were captured using a Leica DC300 digital camera attached to a Leitz-Wetzlar Diavert microscope. The area of each plaque was determined using IM500 image software (Leica). Similar protocols were used for RSV, except that the assays were performed in HEp-2 cells and DMEM supplemented with 2% heat-inactivated fetal calf serum was used instead of EMEM.
# [3] = target: FGF-2 (Homo sapiens, UniProt P09038); assay: Growth factor binding assay (SPR solution affinity), FGF-2; details: SPR, HBS-EP buffer containing 0.3 M NaCl, 25° C.; read-out: Kd FGF-2
# Sequence of FGF-2 (P09038 143-288, species assumed): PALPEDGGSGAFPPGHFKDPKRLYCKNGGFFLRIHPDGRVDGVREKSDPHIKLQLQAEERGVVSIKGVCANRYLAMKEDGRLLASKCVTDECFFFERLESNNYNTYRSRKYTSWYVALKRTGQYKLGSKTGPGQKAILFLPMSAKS
# Summary of the method: (§3)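 Kd measured by SPR solution affinity: fixed growth factor with varying ligand competing for heparin-coated sensorchip, 25 °C. Buffer HBS-EP pH 7.4 (150 mM NaCl) for FGF-1 and VEGF; FGF-2 with 0.3 M NaCl. Duplicate values averaged.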
# [4] = test system: HSV-2; assay: Anti-HSV screening assay (viral plaques), HSV-2; type: cell-based; details: 100 μg/mL, viral plaques relative to mock treated controls
# Protocol: as §1, §2
# [5] = target: FGF-1 (Homo sapiens, UniProt P05230); assay: Growth factor binding assay (SPR solution affinity), FGF-1; details: SPR, HBS-EP buffer, 25° C.; read-out: Kd FGF-1
# Sequence of FGF-1 (P05230 whole entry, species assumed): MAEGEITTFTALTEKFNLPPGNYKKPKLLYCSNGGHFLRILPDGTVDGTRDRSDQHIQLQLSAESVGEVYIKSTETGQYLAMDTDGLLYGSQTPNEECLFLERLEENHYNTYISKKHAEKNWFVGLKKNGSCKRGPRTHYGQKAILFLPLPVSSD
# [6] = target: T2, VEGF (Homo sapiens, UniProt P15692); assay: Growth factor binding assay (SPR solution affinity), VEGF; details: HBS-EP buffer, 25° C.
# T2 sequence (P15692 207-395): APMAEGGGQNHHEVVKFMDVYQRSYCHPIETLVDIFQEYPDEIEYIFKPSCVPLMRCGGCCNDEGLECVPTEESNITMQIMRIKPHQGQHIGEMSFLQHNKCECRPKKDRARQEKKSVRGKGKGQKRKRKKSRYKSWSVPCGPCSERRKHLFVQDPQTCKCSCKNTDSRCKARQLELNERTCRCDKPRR
# Summary of the method: as §3
# [7] = test system: HSV-1; assay: Anti-HSV screening assay (viral plaques), HSV-1; type: cell-based; details: 100 μg/mL, viral plaques relative to mock treated controls
# Protocol: as §1, §2
# [8] = test system: HSV-2; assay: Viral plaque number-reduction assay, HSV-2; details: GMK AH1 cells
# Protocol: as §1, §2
# [9] = test system: GMK AH1 cells; assay: Cytotoxicity assay, GMK AH1; type: cell-based, African green monkey; details: cell viability reduced by 50%
# Protocol: The assay was performed in GMK AH1 cells that had been seeded in 96 well cluster plates and reached approximately 80-90% confluence at day 2 of culture. The cells were washed with EMEM and incubated for 24 h at 37° C. with 100 μL of serial two-fold dilutions of the test compound in serum-free EMEM. The effect of the test compound on cell viability was measured by using the tetrazolium-based CellTiter96 assay according to the manufacturer's protocol (Promega, Madison, Wis., USA).
# [10] = test system: HSV-1; assay: Viral plaque number-reduction assay, HSV-1; details: GMK AH1 cells
# Protocol: as §1, §2
Structure (SMILES),Ki [1] [nM],Residual infectivity (%) RSV [2] [%],Kd [3] [nM],Residual infectivity (%) HSV-2 [4] [%],Kd [5] [nM],Kd [6] [nM],Residual infectivity (%) HSV-1 [7] [%],Selective index CC50/IC50 HSV-2 [8],Cytotoxicity CC50 GMK AH1 [9] [µg/mL],Selective index CC50/IC50 HSV-1 [10]
"O=S(=O)(O)OCC1OC(OC2C(OCCCCCCCCCCCCn3cc(-c4ccccc4)nn3)OC(COS(=O)(=O)O)C(OS(=O)(=O)O)C2OS(=O)(=O)O)C(OS(=O)(=O)O)C(OC2OC(COS(=O)(=O)O)C(OS(=O)(=O)O)C(OC3OC(COS(=O)(=O)O)C(OS(=O)(=O)O)C(OC4OC(COS(=O)(=O)O)C(OS(=O)(=O)O)C(OS(=O)(=O)O)C4OS(=O)(=O)O)C3OS(=O)(=O)O)C2OS(=O)(=O)O)C1OS(=O)(=O)O [Compound 8, 12-(4-Phenyl-[1,2,3]triazol-1-yl)dodecyl 2,3,4,6-tetra-O-sodium sulfonato-α-D-mannopyranosyl-(1→3)-2,4,6-tri-O-sodium sulfonato-α-D-mannopyranosyl-(1→3)-2,4,6-tri-O-sodium sulfonato-α-D-mannopyranosyl-(1→3)-2,4,6-tri-O-sodium sulfonato-α-D-mannopyranosyl-(1→2)-3,4,6-tri-O-sodium sulfonato-α-D-mannopyranoside]",3.5 ± 0.4,3,253 ± 25,0.2,2.3 ± 1.3,5.1 ± 1.8,7,–,–,–
"O=S(=O)(O)OCC1OC(OC2C(OCCCCCCCCCCCCn3cc(-c4cccc5ccccc45)nn3)OC(COS(=O)(=O)O)C(OS(=O)(=O)O)C2OS(=O)(=O)O)C(OS(=O)(=O)O)C(OC2OC(COS(=O)(=O)O)C(OS(=O)(=O)O)C(OC3OC(COS(=O)(=O)O)C(OS(=O)(=O)O)C(OC4OC(COS(=O)(=O)O)C(OS(=O)(=O)O)C(OS(=O)(=O)O)C4OS(=O)(=O)O)C3OS(=O)(=O)O)C2OS(=O)(=O)O)C1OS(=O)(=O)O [Compound 11, 12-(4-Naphthalen-1-yl-[1,2,3]triazol-1-yl)dodecyl 2,3,4,6-tetra-O-sodium sulfonato-α-D-mannopyranosyl-(1→3)-2,4,6-tri-O-sodium sulfonato-α-D-mannopyranosyl-(1→3)-2,4,6-tri-O-sodium sulfonato-α-D-mannopyranosyl-(1→3)-2,4,6-tri-O-sodium sulfonato-α-D-mannopyranosyl-(1→2)-3,4,6-tri-O-sodium sulfonato-α-D-mannopyranoside]",4.8 ± 1.8,0,73 ± 23,0,0.19 ± 0.1,0.79 ± 0.24,0,> 444,>400,> 222
